Results taken from US20100298141A1, “SUBSTITUTED PYRIDINE N-OXIDE HERBICIDES” (E. I. DU PONT DE NEMOURS AND COMPANY, priority 2007, published 2010).

Columns and labels:
[1] = system: umbrella sedge; test: Test C flooded paddy test; type: in vivo, Cyperus difformis; details: Flood
Outline: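 Greenhouse pots flooded to 3 cm above soil at time of treatment received compound via the water, which stayed at that level.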

[2] = system: common ragweed; test: Test C pre-/postemergence test; type: in vivo, Ambrosia elation
Outline: (§1)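 Test chemicals were formulated with surfactant in a non-phytotoxic solvent and sprayed both on freshly planted seeds (preemergence) and on 1- to 4-leaf plants of 2–18 cm (postemergence). Flooded-paddy pots received compound directly into 3 cm of standing water, maintained for the test.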

[3] = system: lambsquarters; test: Test C pre-/postemergence test; type: in vivo, Chenopodium album
Outline: as §1

[4] = system: giant foxtail; test: Test C pre-/postemergence test; type: in vivo, Setaria faberii
Outline: as §1

[5] = system: cocklebur; test: Test C pre-/postemergence test; type: in vivo, Xanthium strumarium
Outline: as §1

[6] = system: wheat; test: Test A pre-/postemergence greenhouse test; type: in vivo, Triticum aestivum; details: for Wheat plant response rating: 0 to 100 scale
Outline: (§2)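 Seeds sown in a loam soil–sand blend got a preemergence directed soil spray of compound in a non-phytotoxic solvent mixture containing surfactant. Postemergence sprays of the same formulation went at the same time onto plants 2–10 cm tall at the one- to two-leaf stage. Injury was scored visually against untreated controls after about ten days in the greenhouse.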

[7] = system: morningglory; test: Test C pre-/postemergence test; type: in vivo, Ipomoea coccinea
Outline: as §1

[8] = system: downy brome; test: Test C pre-/postemergence test; type: in vivo, Bromus tectorum
Outline: as §1

[9] = system: yellow nutsedge; test: Test C pre-/postemergence test; type: in vivo, Cyperus esculentus
Outline: as §1

[10] = system: johnsongrass; test: Test C pre-/postemergence test; type: in vivo, Sorghum halepense
Outline: as §1

[11] = system: soybean; test: Test C pre-/postemergence test; type: in vivo, Glycine max
Outline: as §1

[12] = system: corn; test: Test C pre-/postemergence test; type: in vivo, Zea mays
Outline: as §1

[13] = system: giant foxtail; test: Test A pre-/postemergence greenhouse test; type: in vivo, Setaria faberi; details: for Foxtail, Giant plant response rating: 0 to 100 scale
Outline: as §2

[14] = system: woolly cupgrass; test: Test C pre-/postemergence test; type: in vivo, Eriochloa villosa
Outline: as §1

[15] = system: crabgrass; test: Test A pre-/postemergence greenhouse test; type: in vivo, Digitaria sanguinalis; details: for Crabgrass, Large plant response rating: 0 to 100 scale
Outline: as §2

[16] = system: Goosegrass; test: Test C pre-/postemergence test; type: in vivo, Eleusin indica
Outline: as §1

[17] = system: morningglory; test: Test A pre-/postemergence greenhouse test; type: in vivo, Ipomoea spp.; details: 500 g ai/ha
Outline: as §2

[18] = 31 g ai/ha, Preemergence, scale 0 to 100
[19] = 62 g ai/ha, preemergence, scale 0 (no effect) to 100 (complete control)
[20] = preemergence, 125 g ai/ha, scale 0 (no effect) to 100 (complete control)
[21] = Postemergence, 125 g ai/ha, 0 is no effect, 100 is complete control
[22] = Postemergence, 500 g ai/ha, 0 is no effect, 100 is complete control
[23] = Preemergence, 125 g ai/ha, 0 no effect, 100 complete control
[24] = Preemergence, 500 g ai/ha, 0 to 100 scale where 0 is no effect and 100 is complete control

## Cn1nc(C(F)(F)F)c(CS(=O)(=O)c2ccc(Cl)c[n+]2[O-])c1OC(F)F [Compound 7]
[1]; 31 g ai/ha, scale 0 to 100 (0 no effect, 100 complete control)
  Plant response rating, Sedge, Umbrella: 0
[1]; 62 g ai/ha, scale 0 to 100, 0 no effect, 100 complete control, 13 to 15 days
  Plant response rating, Sedge, Umbrella: 40
[1]; 125 g ai/ha, scale 0 to 100, 0 no effect, 100 complete control, 13 to 15 days
  Plant response rating, Sedge, Umbrella: 55
[1]; 250 g ai/ha, scale 0 to 100 (0 no effect, 100 complete control)
  Plant response rating, Sedge, Umbrella: 60
[2]; [18]
  Ragweed plant response rating: 0
[2]; [19]
  Ragweed plant response rating: 80
[2]; Preemergence, 250 g ai/ha
  Plant response rating (0 to 100), Ragweed: 100
[2]; [20]
  Ragweed plant response rating: 100
[3]; [18]
  Lambsquarters plant response rating: 0
[3]; [19]
  Lambsquarters plant response rating: 0
[3]; Preemergence, 250 g ai/ha
  Plant response rating (0 to 100), Lambsquarters: 100
[3]; [20]
  Lambsquarters plant response rating: 80
[4]; [18]
  Foxtail, Giant plant response rating: 50
[4]; [19]
  Foxtail, Giant plant response rating: 50
[4]; Preemergence, 250 g ai/ha
  Plant response rating (0 to 100), Foxtail, Giant: 100
[4]; [20]
  Foxtail, Giant plant response rating: 80
[5]; [18]
  Cocklebur plant response rating: 0
[5]; [19]
  Cocklebur plant response rating: 0
[5]; Preemergence, 250 g ai/ha
  Plant response rating (0 to 100), Cocklebur: 0
[5]; [20]
  Cocklebur plant response rating: 0
[6]; [21]
  Wheat plant response rating: 0
[6]; [22]
  Wheat plant response rating: 20
[6]; [23]
  Wheat plant response rating: 20
[6]; [24]
  Plant response rating, Wheat: 50
[7]; [18]
  Morningglory plant response rating: 0
[7]; [19]
  Morningglory plant response rating: 0
[7]; Preemergence, 250 g ai/ha
  Plant response rating (0 to 100), Morningglory: 0
[7]; [20]
  Morningglory plant response rating: 0
[8]; [18]
  Bromegrass, Downy plant response rating: 0
[8]; [19]
  Bromegrass, Downy plant response rating: 0
[8]; Preemergence, 250 g ai/ha
  Plant response rating (0 to 100), Bromegrass, Downy: 0
[8]; [20]
  Bromegrass, Downy plant response rating: 0
[9]; [18]
  Nutsedge, Yellow plant response rating: 0
[9]; [19]
  Nutsedge, Yellow plant response rating: 0
[9]; Preemergence, 250 g ai/ha
  Plant response rating (0 to 100), Nutsedge, Yellow: 100
[9]; [20]
  Nutsedge, Yellow plant response rating: 98
[10]; [18]
  Johnsongrass plant response rating: 90
[10]; [19]
  Johnsongrass plant response rating: 100
[10]; Preemergence, 250 g ai/ha
  Plant response rating (0 to 100), Johnsongrass: 100
[10]; [20]
  Johnsongrass plant response rating: 100
[11]; [18]
  Soybean plant response rating: 0
[11]; [19]
  Soybean plant response rating: 0
[11]; Preemergence, 250 g ai/ha
  Plant response rating (0 to 100), Soybean: 30
[11]; [20]
  Soybean plant response rating: 0
[12]; [18]
  Corn plant response rating: 0
[12]; [19]
  Corn plant response rating: 0
[12]; Preemergence, 250 g ai/ha
  Plant response rating (0 to 100), Corn: 30
[12]; [20]
  Corn plant response rating: 10
[13]; [21]
  Foxtail, Giant plant response rating: 30
[13]; [22]
  Foxtail, Giant plant response rating: 70
[13]; [23]
  Foxtail, Giant plant response rating: 90
[13]; [24]
  Plant response rating, Foxtail, Giant: 90
[14]; [18]
  Cupgrass, Woolly plant response rating: 50
[14]; [19]
  Cupgrass, Woolly plant response rating: 70
[14]; Preemergence, 250 g ai/ha
  Plant response rating (0 to 100), Cupgrass, Woolly: 100
[14]; [20]
  Cupgrass, Woolly plant response rating: 98
[15]; [21]
  Crabgrass, Large plant response rating: 70
[15]; [22]
  Crabgrass, Large plant response rating: 80
[15]; [23]
  Crabgrass, Large plant response rating: 90
[15]; [24]
  Plant response rating, Crabgrass, Large: 90
[16]; [18]
  Goosegrass plant response rating: 100
[16]; [19]
  Goosegrass plant response rating: 100
[16]; Preemergence, 250 g ai/ha
  Plant response rating (0 to 100), Goosegrass: 100
[16]; [20]
  Goosegrass plant response rating: 100
[17]; Postemergence, 0 to 100 scale, 0 is no effect, 100 is complete control
  Morningglory plant response rating: 10
[17]; Preemergence, 0 to 100 scale where 0 is no effect and 100 is complete control
  Plant response rating, Morningglory: 30
